Values quoted from earlier work as cited in US20260182571A1, “A ME[…] AND USE THEREOF” (I-TECH AB, priority 2022, published 2026).

Conditions: pH 7 and 20° C.

On1ccccc1=S.On1ccccc1=S.[Cu] [CuPT, copper (II) pyrithione]
(equilibrium) water solubility: less than 0.039 mg/L
